This assay addresses CCR2 (Homo sapiens, UniProt P41597). The assay can be described thus: calcium flux assay. The format is cell-based. The conditions noted are these: read-out: IC50 Ca++ flux. From the text:
The capacity of the compounds of the invention to antagonize CCR2 function can be determined using a suitable screen (e.g., high throughput assay). For example, an agent can be tested in an extracellular acidification assay, calcium flux assay, ligand binding assay or chemotaxis assay (see, for example, Hesselgesser et al., J Biol. Chem. 273(25):15687-15692 (1998), WO 00/05265 and WO 98/02151).
Background: A change in cytosolic calcium serves as a functional read-out for many receptors and channels.
Chain of CCR2 (P41597 whole entry): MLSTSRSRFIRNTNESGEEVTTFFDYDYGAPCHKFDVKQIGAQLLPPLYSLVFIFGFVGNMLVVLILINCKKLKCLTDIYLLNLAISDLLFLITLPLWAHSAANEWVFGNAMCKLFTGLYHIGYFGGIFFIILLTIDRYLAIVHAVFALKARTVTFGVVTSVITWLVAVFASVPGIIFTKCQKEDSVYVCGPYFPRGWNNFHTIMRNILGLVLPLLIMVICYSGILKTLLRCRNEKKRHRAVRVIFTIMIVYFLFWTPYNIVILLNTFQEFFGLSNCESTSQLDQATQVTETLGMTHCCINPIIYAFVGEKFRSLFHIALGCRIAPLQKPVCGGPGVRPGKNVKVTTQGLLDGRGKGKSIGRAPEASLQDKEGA
`N#Cc1ccc(Oc2ccc(CN3CCC(CC4CC4)(C(=O)NCc4cc(C(F)(F)F)cc(C(F)(F)F)c4)CC3)cn2)cc1` [Example 67, N-(3,5-Bis(trifluoromethyl)benzyl)-1-((6-(4-cyanophenoxy)pyridin-3-yl)methyl)-4-(cyclopropylmethyl)piperidine-4-carboxamide]: the IC50 lay in the range of 200 to 1000 nM.

As to `CCS(=O)(=O)NC(=O)c1cc(CN2CCC(CC3CC3)(C(=O)NCc3cc(C(F)(F)F)cc(C(F)(F)F)c3)CC2)ccc1F` [Example 64, N-(3,5-Bis(trifluoromethyl)benzyl)-4-(cyclopropylmethyl)-1-(3-(ethylsulfonylcarbamoyl)-4-fluorobenzyl)piperidine-4-carboxamide], the IC50 is 200 to 1000 nM. Turning to `O=C(NCc1cc(C(F)(F)F)cc(C(F)(F)F)c1)C1(Cc2ccncc2)CCN(CC2CCOCC2)CC1` [Example 13, N-(3,5-Bis(trifluoromethyl)benzyl)-4-(pyridin-4-ylmethyl)-1-((tetrahydro-2H-pyran-4-yl)methyl)piperidine-4-carboxamide], the IC50 is > 1000 nM. For the molecule `CC(C)CC1(C(=O)N2CCN(c3cccc(C(F)(F)F)c3)CC2)CCN(Cc2ccc3c(c2)OCO3)CC1` [Example 40, (1-(Benzo[d][1,3]dioxol-5-ylmethyl)-4-isobutylpiperidin-4-yl)(4-(3-(trifluoromethyl)phenyl)piperazin-1-yl)methanone], the IC50 is > 1000 nM. The value for `COc1ccc(CN2CCC(CC(C)C)(C(=O)NCc3cc(C(F)(F)F)cc(C(F)(F)F)c3)CC2)cc1O` [Example 30, N-(3,5-Bis(trifluoromethyl)benzyl)-1-(3-hydroxy-4-methoxybenzyl)-4-isobutylpiperidine-4-carboxamide] was < 200 nM; that for `O=C(NCc1cc(C(F)(F)F)cc(C(F)(F)F)c1)C1(CC2CC2)CCN(Cc2ccc3c(c2)OC(F)(F)O3)CC1` [Example 50, N-(3,5-Bis(trifluoromethyl)benzyl)-4-(cyclopropylmethyl)-1-((2,2-difluorobenzo[d][1,3]dioxol-5-yl)methyl)piperidine-4-carboxamide] was < 200 nM. With `CC(C)CC1(C(=O)NCc2cc(C(F)(F)F)cc(C(F)(F)F)c2)CCN(CCN2CCCCC2)CC1` [Example 18, N-(3,5-Bis(trifluoromethyl)benzyl)-4-isobutyl-1-(2-(piperidin-1-yl)ethyl)piperidine-4-carboxamide], the IC50 is > 1000 nM.

As to `O=C(NCc1cc(C(F)(F)F)cc(C(F)(F)F)c1)C1(CC2CCOCC2)CCN(Cc2ccc3c(c2)OCO3)CC1` [Example 27, 1-(Benzo[d][1,3]dioxol-5-ylmethyl)-N-(3,5-bis(trifluoromethyl)benzyl)-4-((tetrahydro-2H-pyran-4-yl)methyl)piperidine-4-carboxamide], the IC50 is > 1000 nM. Turning to `CC(C)CC1(C(=O)NCc2cc(C(F)(F)F)cc(C(F)(F)F)c2)CCN(c2ccccn2)CC1` [Example 19, N-(3,5-Bis(trifluoromethyl)benzyl)-4-isobutyl-1-(pyridin-2-yl)piperidine-4-carboxamide], the IC50 was > 1000 nM. For `CC(C)CC1(C(=O)NCc2cc(C(F)(F)F)cc(C(F)(F)F)c2)CCN(Cc2ccc3c(c2)OCO3)CC1` [Example 21, 1-(Benzo[d][1,3]dioxol-5-ylmethyl)-N-(3,5-bis(trifluoromethyl)benzyl)-4-isobutylpiperidine-4-carboxamide], the IC50 lay in the range of 200 to 1000 nM. As for `COc1ccc(CN2CCC(CC3CC3)(C(=O)NCc3cc(C(F)(F)F)cc(C(F)(F)F)c3)C2)cc1F` (stereo not drawn) [Example 80, N-(3,5-Bis(trifluoromethyl)benzyl)-3-(cyclopropylmethyl)-1-(3-fluoro-4-methoxybenzyl)pyrrolidine-3-carboxamide], the IC50 is 200 to 1000 nM. The value for `CC(C)CC1(C(=O)NCc2cc(C(F)(F)F)cc(C(F)(F)F)c2)CCN(CC(=O)N2CCS(=O)(=O)CC2)CC1` [Example 53, N-(3,5-Bis(trifluoromethyl)benzyl)-4-isobutyl-1-(2-oxo-2-sulphonylmorpholinoethyl)piperidine-4-carboxamide] was > 1000 nM; that for `CC(C)CC1(C(=O)N[C@H](C)c2cc(C(F)(F)F)cc(C(F)(F)F)c2)CCN(Cc2ccc3c(c2)OCO3)CC1` [Example 44, (R)-1-(Benzo[d][1,3]dioxol-5-ylmethyl)-N-(1-(3,5-bis(trifluoromethyl)phenyl)ethyl)-4-isobutylpiperidine-4-carboxamide] was > 1000 nM. As for `O=C(O)c1cc(CN2CCC(CC3CC3)(C(=O)NCc3cc(C(F)(F)F)cc(C(F)(F)F)c3)C2)ccc1F` (stereo not drawn) [Example 79, 5-((3-(3,5-Bis(trifluoromethyl)benzylcarbamoyl)-3-(cyclopropylmethyl)pyrrolidin-1-yl)methyl)-2-fluorobenzoic acid], the IC50 was 200 to 1000 nM. As for `O=C(NCc1cc(C(F)(F)F)cc(C(F)(F)F)c1)C1(CC2CC2)CCN(CC2CCOCC2)C1` (stereo not drawn) [Example 81, N-(3,5-Bis(trifluoromethyl)benzyl)-3-(cyclopropylmethyl)-1-((tetrahydro-2H-pyran-4-yl)methyl)pyrrolidine-3-carboxamide], the figure is < 200 nM; as for `CC(C)CC1(C(=O)NCc2cc(C(F)(F)F)cc(C(F)(F)F)c2)CCN(CC2CCOCC2)CC1` [Example 12, N-(3,5-Bis(trifluoromethyl)benzyl)-4-isobutyl-1-((tetrahydro-2H-pyran-4-yl)methyl)piperidine-4-carboxamide], > 1000 nM; as for `CC(C)CC1(C(=O)NCc2cc(C(F)(F)F)cc(C(F)(F)F)c2)CCN(C2CCC(O)(c3ccc4c(c3)OCO4)CC2)CC1` (stereo not drawn) [Example 26, 1-(4-(Benzo[d][1,3]dioxol-5-yl)-4-hydroxycyclohexyl)-N-(3,5-bis(trifluoromethyl)benzyl)-4-isobutylpiperidine-4-carboxamide], 200 to 1000 nM. As for `O=C(NCCN1CCCC1)c1cc(CN2CCC(CC3CC3)(C(=O)NCc3cc(C(F)(F)F)cc(C(F)(F)F)c3)CC2)ccc1F` [Example 59, N-(3,5-Bis(trifluoromethyl)benzyl)-4-(cyclopropylmethyl)-1-(4-fluoro-3-(2-(pyrrolidin-1-yl)ethylcarbamoyl)benzyl)piperidine-4-carboxamide], the figure is > 1000 nM.

For the molecule `CC(C)(CN1CCC(CC2CC2)(C(=O)NCc2cc(C(F)(F)F)cc(C(F)(F)F)c2)CC1)N1CCOCC1` [Example 69, N-(3,5-Bis(trifluoromethyl)benzyl)-4-(cyclopropylmethyl)-1-(2-methyl-2-morpholinopropyl)piperidine-4-carboxamide], the IC50 lay within 200 to 1000 nM. Take `COCC1(C(=O)NCc2cc(C(F)(F)F)cc(C(F)(F)F)c2)CCN(CC2CCOCC2)CC1` [Example 11, N-(3,5-Bis(trifluoromethyl)benzyl)-1-((tetrahydro-2H-pyran-4-yl)methyl)-4-(methoxymethyl)piperidine-4-carboxamide]: the IC50 was > 1000 nM. For the molecule `CC(C)CC1(C(=O)N[C@@H](C)c2cc(C(F)(F)F)cc(C(F)(F)F)c2)CCN(Cc2ccc3c(c2)OCO3)CC1` [Example 45, (S)-1-(benzo[d][1,3]dioxol-5-ylmethyl)-N-(1-(3,5-bis(trifluoromethyl)phenyl)ethyl)-4-isobutylpiperidine-4-carboxamide], the IC50 was > 1000 nM.

Usually IC50 stands for the midpoint of a concentration-inhibition curve.

The values above are taken from patent US20100210633A1, “CARBOXAMIDE COMPOUNDS AND THEIR USE” (EPIX Delaware, Inc., priority 2006, published 2010).
